# Test results as given in patent publication US12595438B2, “Biodegradable quaternary ammonium compound” (GALAXY SURFACTANTS LTD., priority 2021, dated 2026).
# What was measured:
# Format in all cases: cell-based
# [1] = test system: Test Organism; experiment: Overall MIC over all test organisms
# Source text: (§1) The Minimum Inhibitory concentration (MIC) is the lowest dilution which inhibits the growth of microorganism. MIC assays generate a value in μg/mL for the exact, lowest concentration of the antimicrobial agent that prevents the visible growth of bacteria. MIC was detected by using test tube method using different dilution in sterile tryptic soya broth (growth medium). (Ref.: https://www.ncbi.nlm.nih.gov/pmc/articles/PMC7470068/ this link describes about Test tube method of MIC)
# (§2) • Working stock preparation: 1% in sterile D/W • Diluent: Sterile tryptic soy broth • Dilution range: 0.1% to 1%, further diluted to 100 ppm to 1000 ppm • Addition of culture: 0.1 mL of 18-24 hours old culture • Incubation temperature and time: • Bacteria: 37° C. for 24-48 hours • Y/M: 22.5° C. for 48-72 hours
# (§3) The minimum inhibitory concentration (MIC) of Diamidoquat (DAQ), Benzalkonium chloride (BKC) and Esterquat (EQ) is shown in Table 1.
# (§4) Antimicrobial efficacy of diamidoquat was studied as per MIC standard protocol.
# [2] = test system: S. aureus ATCC 6538; experiment: MIC determination, test tube method; conditions: tryptic soy broth, 37° C. for 24-48 hours
# Source text: as §1, §2, §4
# [3] = test system: E. coli ATCC 10142; experiment: MIC determination, test tube method; conditions: tryptic soy broth, 37° C. for 24-48 hours
# Source text: as §1, §2, §4
# [4] = test system: A. niger ATCC 16404; experiment: MIC determination, test tube method; conditions: tryptic soy broth, 22.5° C. for 48-72 hours
# Source text: as §1, §2, §4
# [5] = test system: C. albicans ATCC 10231; experiment: MIC determination, test tube method; conditions: tryptic soy broth, 22.5° C. for 48-72 hours
# Source text: as §1, §2, §4
# [6] = test system: P. aeruginosa ATCC 9372; experiment: MIC determination, test tube method; conditions: tryptic soy broth, 37° C. for 24-48 hours
# Source text: as §1, §2, §3, §4
substance,measurement,setting,value
Benzalkonium chloride [BKC],Overall MIC,[1],0.7%
same,MIC,[2],0.6%
same,MIC,[3],0.7%
same,MIC,[4],0.7%
same,MIC,[5],0.7%
same,MIC,[6],0.7%
